Data: PMC4696656, “Insights into the Mechanism of Action of Bactericidal Lipophosphonoxins” (PLoS ONE, 2015)

Legend:
mice [1] = test: MTD test in mouse model, administration per os; assay type: in vivo, Mice ICR; conditions: for gross pathology findings: males and females
Experimental: (§1) The MTD (maximum tolerated dose) in mouse model was carried out by MediTox s.r.o. on a commercial basis. The complete protocol for the MTD testing can be found in S3 Supporting Information.
(§2) For the administration the appropriate amount of the Test item (TI) was dissolved in water (aqua for injection, B. Braun, Germany) and administered to mice either orally (in the volume of 0.5 mL/25 g of body weight) or intraperitoneally (in the volume of 1.0 mL/25 g of body weight).
(§3) S3 and S4 Tables summarize the test system parameters, the number of animals used, and the doses tested. Briefly, for each dose, 3 males are 3 females were used.
(§4) All animals from the study were observed daily for clinical signs, morbidity or mortality during acclimation, 0.5, 4, 6, 24 and 48 hours after administration. Onset, duration and severity of any signs were recorded, and used as criteria for early euthanasia decisions. The clinical observations included: changes in skin, fur, eyes, occurrence of secretion and excretion; autonomic activity (e.g. lacrimation, piloerection); changes in gait and posture; changes in unprovoked behavior, presence of stereotypes or bizarre behavior; response to handling. Ether was used for anesthesia in compliance with the Standard Operating Procedures (SOPs) of MediTox, the European convention for the protection of vertebrate animals used for experimental and other scientific purposes (ETS 123), the Czech Collection of laws No. 246/1992, inclusive of the amendments, on the Protection of animals against cruelty, and Public Notice of the Ministry of Agriculture of the Czech Republic, Collection of laws No. 419/2012 as amended, on keeping and exploitation of experimental animals. MediTox s.r.o. is a holder of the accreditation Certificate for user’s issued by Central Committee for Animal Protection of the Czech Republic.
(§5) All the animals that died during study or survived to their scheduled euthanasia (cervical dislocation under ether anesthesia) 8th day after the administration received a complete post-mortem examination and microscopic examination of organs showing evidence of gross pathology. The cause of death of animals that died during the study before the scheduled euthanasia was mainly venostasis of kidneys and liver.
(§6) S3 Supporting in formation. MTD test in mouse mo d el – a detailed […]
(§7) The MTD (maximum tolerated dose) in mouse model was carried out by MediTox s.r.o. on the […]
(§8) The stud y w as carried ou t accordin g to:
(§9) ICH M3(R2) – The International Conference on Harmonization of Technical Requirements for Registration of Pharm aceuticals for Human Use. Relevant SOPs (Standard operating procedures ) […]
(§10) Facility Management and Animal Husbandry
(§11) Animal car e was in comp liance with th e SOPs of MediTox s.r.o., the Euro pean convention fo r the protection of vertebrate animals used for experimental and other scientific purposes (ETS 123), the Czech Collection of laws No. 246/1992, inclusive of the amendments, on the Protection of animals against cruelty, and Public Notice of the Ministry of Agriculture of the Czech Republic, Collection of laws No. 419/2012 as amended, on keeping and exploitation of experimental animals. MediTox s.r.o. is a holder of the accreditation Certificate for user’s issued by Central Committee for Animal Protection of the Czech Republic.
(§12) Animal Welfare Act Compliance
(§13) The stud y was prepared for this t ype of ex perimen t and approved b y th e Ins titutional Animal Care and Use Committee ( IAC UC) and the Committee for Animal Protection of the Ministry of Health (PP 09/2013) of the Czech Republic. Procedures used in this report were designed to conform to accepted practices and to minimize or avoid causing pain, distress, or discomfort to the animals.
(§14) The number of animals selected for use in this study was considered to be the minimum number necessar y to meet scienti fic and regulator y guideli nes for this t ype of stud y.
(§15) Preparation of the Test item application formulations […]

B. subtilis 168 = test: Selection for resistant strains, stepwise two-fold increased concentration; assay type: cell-based, Bacillus subtilis; conditions: 24 h cultures, two-fold increased concentration each transfer; rifampicin from 0.01 mg/L, DR5026 from 0.5 mg/L
Experimental: A) B. subtilis. […] Then, the growth of the culture was evaluated by OD600nm and an aliquot of the culture was transferred to a new tube with fresh medium and a two-fold increased concentration of the active compound. This template was followed until no growth was detected for DR5026 or until B. subtilis grew at 5 mg/L of rifampicin.

mice [2] = test: MTD test in mouse model, administration intraperitoneally; assay type: in vivo, Mice ICR
Experimental: as §1, §2, §3, §4, §5, §6, §7, §8, §9, §10, §11, §12, §13, §14, §15

[3] = D2-IP 500 mg/kg i.p., females, 3 animals
[4] = D2-IP 500 mg/kg i.p., males, 3 animals
[5] = D3-IP 250 mg/kg i.p., females, 3 animals
[6] = D3-IP 250 mg/kg i.p., males, 3 animals
[7] = D4-IP 80 mg/kg i.p., females, 3 animals
[8] = D4-IP 80 mg/kg i.p., males, 3 animals
[9] = D5-IP 50 mg/kg i.p., females, 3 animals
[10] = D5-IP 50 mg/kg i.p., males, 3 animals

CCCCCCCCCCCCCCCCOP(=O)(CCN1C[C@@H](O)[C@H](O)C1)OC[C@H]1O[C@@H](n2ccc(=O)[nH]c2=O)[C@H](O)[C@@H]1O (stereo partly shown) [DR5026]
gross pathology findings (mice [1]; D1-PO, 5 mg/kg p.o.): NO FINDINGS | gross pathology findings (mice [1]; D2-PO, 500 mg/kg p.o.): NO FINDINGS | gross pathology findings (mice [1]; D3-PO, 1000 mg/kg p.o.): NO FINDINGS | gross pathology findings (mice [1]; D4-PO, 1500 mg/kg p.o.): NO FINDINGS | gross pathology findings (mice [1]; D5-PO, 2000 mg/kg p.o.): NO FINDINGS | signs of toxicity (mice [1]; per os 5, 500, 1000, 1500 and 2000 mg/kg, single dose): did not cause any signs of toxicity | gross pathology changes (mice [1]; per os 5-2000 mg/kg): no gross pathology changes were detected | highest peroral dose without any signs of toxicity (maximal tolerated dose) (mice [1]; peroral, single dose): 2000 mg/kg | development of resistance (B. subtilis 168): failed to obtain cells that would grow at concentrations exceeding the MIC | gross pathology findings (mice [2]; D1-IP, 5 mg/kg i.p., males and females): NO FINDINGS | abdominal cavity red liquid, number of animals with finding (mice [2]; [3]): 2 | kidneys venostasis, number of animals with finding (mice [2]; [3]): 2 | liver venostasis, number of animals with finding (mice [2]; [3]): 2 | lungs focal hemorrhage, number of animals with finding (mice [2]; [3]): 1 | abdominal cavity red liquid, number of animals with finding (mice [2]; [4]): 2 | kidneys venostasis, number of animals with finding (mice [2]; [4]): 2 | liver venostasis, number of animals with finding (mice [2]; [4]): 2 | abdominal cavity red liquid, number of animals with finding (mice [2]; [5]): 3 | kidneys venostasis, number of animals with finding (mice [2]; [5]): 3 | liver venostasis, number of animals with finding (mice [2]; [5]): 3 | thoracic cavity red liquid, number of animals with finding (mice [2]; [5]): 1 | abdominal cavity red liquid, number of animals with finding (mice [2]; [6]): 3 | kidneys venostasis, number of animals with finding (mice [2]; [6]): 3 | liver venostasis, number of animals with finding (mice [2]; [6]): 3 | lungs venostasis, number of animals with finding (mice [2]; [6]): 1 | thoracic cavity red liquid, number of animals with finding (mice [2]; [6]): 1 | liver enlarged, number of animals with finding (mice [2]; [7]): 3 | liver rounded edges, number of animals with finding (mice [2]; [7]): 3 | abdominal cavity red liquid, number of animals with finding (mice [2]; [8]): 1 | kidneys venostasis, number of animals with finding (mice [2]; [8]): 1 | liver enlarged, number of animals with finding (mice [2]; [8]): 2 | liver rounded edges, number of animals with finding (mice [2]; [8]): 2 | liver venostasis, number of animals with finding (mice [2]; [8]): 1 | liver enlarged, number of animals with finding (mice [2]; [9]): 3 | liver rounded edges, number of animals with finding (mice [2]; [9]): 3 | spleen peritoneal adhesions, number of animals with finding (mice [2]; [9]): 1 | liver enlarged, number of animals with finding (mice [2]; [10]): 3 | liver peritoneal adhesions, number of animals with finding (mice [2]; [10]): 2 | liver rounded edges, number of animals with finding (mice [2]; [10]): 3 | spleen peritoneal adhesions, number of animals with finding (mice [2]; [10]): 2 | safe limit (maximal tolerated dose) (mice [2]; administered peritoneally): 50 mg/kg | clinical signs (mice [2]; i.p. 80 mg/kg): all the monitored animals were slightly stolid 5 min after the administration | severe clinical signs / moribund animals (mice [2]; i.p. 80 mg/kg, 24-26 hours): In one male a disturbance of locomotion was observed | clinical signs (mice [2]; i.p. 250 mg/kg and 500 mg/kg): exacerbated the symptoms | mortality (mice [2]; i.p. 500 mg/kg, several hours after administration, 3 males + 3 females): death of 2 males and 2 females | signs of toxicity (mice [2]; i.p. 5 and 50 mg/kg): did not cause any signs of toxicity
